The values that follow come from patent publication US12226405B2, “Compounds and compositions for inhibiting the activity of HIF2-alpha and their methods of use” (Novartis AG, priority 2020, dated 2025).

Assay [1] deals with 786-O subcutaneous xenografts. The assay can be described thus: In vivo 786-O tumor growth model. The settings on record: female nude mice, 30 mg/kg p.o. qd, 21 days. As for the experimental part:
Female nude mice bearing 786-O subcutaneous xenografts were treated with Example 31 at 30 mg/kg p.o. qd or vehicle control. Treatments started 34 days post tumor inoculation and lasted 21 days. Values are provided as mean±SEM with a sample size of n=6 mice per group. The initial tumor volume at day 0 was approximately 260 mm^3.
Experiments were performed in female nude Crl:NU(NCr)-Foxnlnu-Homozygous mice (Charles River, Germany). Animals were 6-9 weeks of age at time of application of the compound. Animals were housed under Optimized Hygienic Conditions in Makrolon type III cages (max. 5 animals per cage) with free access to food and water. […]
Cell line and cell culture: 786-O and SKRC-01 cells were grown in 500 ml RPMI1640 Medium+5 ml L-Glutamine+50 ml FCS+5 ml Sodium Pyruvate+5 ml HEPES and incubated at 37° C. in a 5% CO2 humidified atmosphere. Cells were harvested with trypsin-EDTA, re-suspended in culture medium (with additives) and counted with a Casy® system. […]
Evaluation of antitumor activity: Tumor volumes were measured with calipers and determined according to the formula: length×diameter^2×π/6. In addition to presenting changes of tumor volumes over the course of treatments, antitumor activity is expressed as T/C % (mean change of tumor volume of treated animals/mean change of tumor volume of control animals)×100. […]

For assay [2], the target named is HIF2α PAS-B domain (236-350, biotinylated on the N-terminus) (Homo sapiens (Human), UniProt Q99814). Description: In vitro SPA with the PAS-B domain of HIF2α (competition binding with radio-ligand). The conditions noted are these: versus corresponding enantiomer.
Sequence of HIF2α PAS-B domain (236-350, biotinylated on the N-terminus) (Q99814 236-350): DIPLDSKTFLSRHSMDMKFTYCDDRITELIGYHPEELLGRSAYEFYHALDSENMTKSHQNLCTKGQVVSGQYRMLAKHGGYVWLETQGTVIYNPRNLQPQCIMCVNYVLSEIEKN
Protocol: The assay buffer contained 50 mM Tris-HCl pH7 (Sigma), 20 mM NaCl (Fluka), 0.02% BSA (Sigma), 0.005% Triton X-100 (Pierce) and 1 mM DTT (Fluka). After a 30 min incubation period, 5 μL Streptavidin PVT SPA Beads (Perkin Elmer) at 1.2 mg/mL, diluted in the buffer, were added.

Regarding `FC(F)OC1=CC(C(F)(F)F)=CN2C[C@@]3(CCC(F)(F)c4c3ccnc4Cl)N=C12` [Example 31, (S)-1′-chloro-8-(difluoromethoxy)-8′,8′-difluoro-6-(trifluoromethyl)-7′,8′-dihydro-3H,6′H-spiro[imidazo[1,2-a]pyridine-2,5′-isoquinoline]], the anti-tumor activity entry in assay [1] is recorded as “demonstrated”.
As for `FC(F)OC1=CC(C(F)(F)F)=CN2C[C@@]3(CCOc4cc(C(F)(F)F)ccc43)N=C12` [Example 44, (S)-8′-(difluoromethoxy)-6′,7-bis(trifluoromethyl)-3′H-spiro[chroman-4,2′-imidazo[1,2-a]pyridine]], the “IC50 in the Hif2α SPA assay, fold lower than for the corresponding (R)-enantiomer” value in assay [2] is “greater than 700 fold”.
